Common to all, as to experiment: KINOMEscan competition binding
Holding throughout (conditions): compound 10.0 µM

For assay [1], the system named is ABL1 (human), P00519 [F317I].
Assay [2] has as its system ABL1 (human), P00519 [F317L].
A further assay has as its target BLK (human) (UniProt P51451).
The target in another assay is BMP2K (human) (UniProt Q9NSY1).
In a further assay the target is CHEK1 (human) (UniProt O14757).
Another assay has as its target CSF1R (human) (UniProt P07333).
Assay [3] deals with EGFR (human), P00533 [747-751 del / S ins].
The subject of assay [4] is EGFR (human), P00533 [752-759 del].
Assay [5] relates to EGFR (human), P00533 [A750P; 747-749 del].
Assay [6] deals with EGFR (human), P00533 [G719C; 746-750 del].
The test system of assay [7] is EGFR (human), P00533 [L858R].
The test system of assay [8] is EGFR (human), P00533 [L861Q].
For assay [9], the system named is EGFR (human), P00533 [P753S; 747-752 del].
Assay [10] concerns FLT3 (human), P36888 [D835H].
The test system of assay [11] is FLT3 (human), P36888 [D835Y].
The subject of assay [12] is FLT3 (human), P36888 [ITD].
For assay [13], the system named is FLT3 (human), P36888 [N841I].
A further assay addresses FRK (human) (UniProt P42685).
A further assay concerns the target GAK (human) (UniProt O14976).
In the next assay the target is KIT (human) (UniProt P10721).
The subject of assay [14] is KIT (human), P10721 [D816V].
Assay [15] concerns KIT (human), P10721 [V559D].
Another assay deals with LCK (human) (UniProt P06239).
The target in another assay is PDGFRB (human) (UniProt P09619).
For the next assay, the target named is PIP5K1A (human) (UniProt Q99755).
Another assay concerns the target RIOK1 (human) (UniProt Q9BRS2).
For another assay, the target named is RIOK3 (human) (UniProt O14730).
Another assay concerns the target RPS6KA1 KD2 (human) (UniProt Q15418).
The next assay deals with RPS6KA6 KD2 (human) (UniProt Q9UK32).
The next assay deals with SIK1 (human) (UniProt P57059).
Another assay concerns the target SIK2 (human) (UniProt Q9H0K1).
The target of a further assay is SLK (human) (UniProt Q9H2G2).
Another assay deals with SRPK1 (human) (UniProt Q96SB4).
The target of the next assay is SRPK3 (human) (UniProt Q9UPE1).
The next assay deals with TNK2 (human) (UniProt Q07912).
Assay [16] addresses TYK2 JH2 pseudokinase (human) (UniProt P29597).
The target in another assay is ULK1 (human) (UniProt O75385).
The subject of assay [17] is EGFR (human), P00533 [G719S].
The target in a further assay is MAP2K2 (human) (UniProt P36507).
A further assay addresses MAP2K4 (human) (UniProt P45985).
In a further assay the target is PIK3C2B (human) (UniProt O00750).
A further assay has as its target PIK3CB (human) (UniProt P42338).
A further assay has as its target PIK3CD (human) (UniProt O00329).

The values that follow come from the kinase profiling compilation of Christmann-Franck et al. (2016).

Sequence of TNK2 (human) (Q07912 whole entry, looked up): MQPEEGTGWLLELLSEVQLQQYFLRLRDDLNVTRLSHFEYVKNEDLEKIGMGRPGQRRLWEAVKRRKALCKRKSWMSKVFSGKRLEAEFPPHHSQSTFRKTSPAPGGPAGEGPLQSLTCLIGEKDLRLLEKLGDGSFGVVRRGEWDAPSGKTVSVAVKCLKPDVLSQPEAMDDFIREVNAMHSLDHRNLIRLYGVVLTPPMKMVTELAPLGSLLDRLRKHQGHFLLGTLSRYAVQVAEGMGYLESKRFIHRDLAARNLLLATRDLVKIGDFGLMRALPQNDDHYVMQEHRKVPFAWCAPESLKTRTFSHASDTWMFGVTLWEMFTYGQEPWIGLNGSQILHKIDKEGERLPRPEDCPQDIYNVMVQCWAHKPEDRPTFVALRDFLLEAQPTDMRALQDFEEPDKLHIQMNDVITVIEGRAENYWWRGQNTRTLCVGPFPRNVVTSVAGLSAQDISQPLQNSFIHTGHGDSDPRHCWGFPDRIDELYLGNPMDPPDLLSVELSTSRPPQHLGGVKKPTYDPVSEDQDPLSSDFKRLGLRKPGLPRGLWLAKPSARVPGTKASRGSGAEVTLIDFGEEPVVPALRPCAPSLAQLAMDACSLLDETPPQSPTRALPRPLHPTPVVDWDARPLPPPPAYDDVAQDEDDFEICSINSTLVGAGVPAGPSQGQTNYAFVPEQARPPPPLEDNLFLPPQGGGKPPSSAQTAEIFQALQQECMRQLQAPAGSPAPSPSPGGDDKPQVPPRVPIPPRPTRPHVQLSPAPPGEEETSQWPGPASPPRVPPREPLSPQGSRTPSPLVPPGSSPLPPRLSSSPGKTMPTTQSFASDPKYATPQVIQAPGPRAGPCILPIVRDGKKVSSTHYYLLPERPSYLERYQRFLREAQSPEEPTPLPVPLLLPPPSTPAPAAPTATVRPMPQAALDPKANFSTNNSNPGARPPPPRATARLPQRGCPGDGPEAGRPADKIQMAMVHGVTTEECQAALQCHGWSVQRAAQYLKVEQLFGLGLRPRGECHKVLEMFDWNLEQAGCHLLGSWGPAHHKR
Sequence of RPS6KA6 KD2 (human) (Q9UK32 whole entry, looked up): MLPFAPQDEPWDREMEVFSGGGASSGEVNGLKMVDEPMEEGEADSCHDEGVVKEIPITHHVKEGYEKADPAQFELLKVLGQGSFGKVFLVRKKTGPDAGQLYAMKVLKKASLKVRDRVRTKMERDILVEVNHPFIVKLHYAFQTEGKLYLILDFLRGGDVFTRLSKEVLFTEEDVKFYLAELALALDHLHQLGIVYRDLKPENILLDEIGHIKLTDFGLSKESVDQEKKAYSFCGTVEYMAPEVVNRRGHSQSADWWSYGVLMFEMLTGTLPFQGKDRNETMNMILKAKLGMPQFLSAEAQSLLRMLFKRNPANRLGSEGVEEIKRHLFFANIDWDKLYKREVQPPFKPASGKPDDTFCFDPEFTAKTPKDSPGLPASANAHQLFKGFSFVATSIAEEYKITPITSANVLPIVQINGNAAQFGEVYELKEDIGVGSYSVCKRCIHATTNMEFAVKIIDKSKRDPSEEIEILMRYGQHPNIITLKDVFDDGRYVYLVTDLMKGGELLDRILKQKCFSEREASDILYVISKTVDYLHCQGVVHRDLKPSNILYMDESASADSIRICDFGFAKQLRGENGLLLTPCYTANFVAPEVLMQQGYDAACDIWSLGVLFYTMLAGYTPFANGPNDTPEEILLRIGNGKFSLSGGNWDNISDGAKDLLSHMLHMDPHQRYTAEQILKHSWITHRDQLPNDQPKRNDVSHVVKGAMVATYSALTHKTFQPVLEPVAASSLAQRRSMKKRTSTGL
Sequence of PIK3C2B (human) (O00750 whole entry, looked up): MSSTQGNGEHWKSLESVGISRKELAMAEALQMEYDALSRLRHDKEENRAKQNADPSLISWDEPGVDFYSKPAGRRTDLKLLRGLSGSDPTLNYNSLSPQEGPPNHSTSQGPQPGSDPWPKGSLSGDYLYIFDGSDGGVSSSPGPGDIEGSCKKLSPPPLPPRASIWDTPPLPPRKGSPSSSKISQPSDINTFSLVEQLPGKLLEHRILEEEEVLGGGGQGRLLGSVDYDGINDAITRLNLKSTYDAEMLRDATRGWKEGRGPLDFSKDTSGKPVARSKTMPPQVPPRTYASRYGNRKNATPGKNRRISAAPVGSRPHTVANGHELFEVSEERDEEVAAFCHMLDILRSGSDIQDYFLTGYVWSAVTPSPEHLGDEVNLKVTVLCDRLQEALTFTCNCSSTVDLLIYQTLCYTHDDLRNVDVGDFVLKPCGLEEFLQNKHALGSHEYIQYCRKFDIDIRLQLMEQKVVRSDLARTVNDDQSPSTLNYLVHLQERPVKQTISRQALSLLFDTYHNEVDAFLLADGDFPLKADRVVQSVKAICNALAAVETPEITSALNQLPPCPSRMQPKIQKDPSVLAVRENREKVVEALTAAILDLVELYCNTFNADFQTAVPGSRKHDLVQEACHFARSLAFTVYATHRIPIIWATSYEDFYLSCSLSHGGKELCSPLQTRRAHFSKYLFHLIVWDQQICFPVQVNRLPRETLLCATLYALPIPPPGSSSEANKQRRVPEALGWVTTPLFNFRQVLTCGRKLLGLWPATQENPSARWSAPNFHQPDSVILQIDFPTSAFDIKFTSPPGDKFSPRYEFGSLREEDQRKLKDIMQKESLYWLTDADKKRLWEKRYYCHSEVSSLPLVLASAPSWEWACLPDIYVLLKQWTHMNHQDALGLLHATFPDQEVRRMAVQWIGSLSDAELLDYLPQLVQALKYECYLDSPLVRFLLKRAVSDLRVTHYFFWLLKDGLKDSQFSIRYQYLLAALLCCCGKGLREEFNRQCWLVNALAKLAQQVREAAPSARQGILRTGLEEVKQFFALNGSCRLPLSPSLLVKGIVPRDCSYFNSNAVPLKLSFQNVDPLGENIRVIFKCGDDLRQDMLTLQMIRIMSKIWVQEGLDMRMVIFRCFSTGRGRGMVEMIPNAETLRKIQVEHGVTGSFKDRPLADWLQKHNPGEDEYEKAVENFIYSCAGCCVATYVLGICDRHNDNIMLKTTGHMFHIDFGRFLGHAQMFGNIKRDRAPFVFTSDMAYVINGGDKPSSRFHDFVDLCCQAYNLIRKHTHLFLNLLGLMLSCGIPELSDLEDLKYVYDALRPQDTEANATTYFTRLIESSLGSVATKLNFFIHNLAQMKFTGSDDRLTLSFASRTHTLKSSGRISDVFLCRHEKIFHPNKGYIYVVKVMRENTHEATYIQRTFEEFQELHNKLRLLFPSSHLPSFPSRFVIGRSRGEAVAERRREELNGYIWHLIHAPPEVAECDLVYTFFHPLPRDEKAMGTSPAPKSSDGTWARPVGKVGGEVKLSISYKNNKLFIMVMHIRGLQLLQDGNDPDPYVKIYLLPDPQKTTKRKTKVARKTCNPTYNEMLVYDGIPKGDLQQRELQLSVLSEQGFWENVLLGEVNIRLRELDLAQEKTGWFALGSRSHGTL
Sequence of ABL1 (human), P00519 [F317I] (P00519 whole entry F317I, looked up): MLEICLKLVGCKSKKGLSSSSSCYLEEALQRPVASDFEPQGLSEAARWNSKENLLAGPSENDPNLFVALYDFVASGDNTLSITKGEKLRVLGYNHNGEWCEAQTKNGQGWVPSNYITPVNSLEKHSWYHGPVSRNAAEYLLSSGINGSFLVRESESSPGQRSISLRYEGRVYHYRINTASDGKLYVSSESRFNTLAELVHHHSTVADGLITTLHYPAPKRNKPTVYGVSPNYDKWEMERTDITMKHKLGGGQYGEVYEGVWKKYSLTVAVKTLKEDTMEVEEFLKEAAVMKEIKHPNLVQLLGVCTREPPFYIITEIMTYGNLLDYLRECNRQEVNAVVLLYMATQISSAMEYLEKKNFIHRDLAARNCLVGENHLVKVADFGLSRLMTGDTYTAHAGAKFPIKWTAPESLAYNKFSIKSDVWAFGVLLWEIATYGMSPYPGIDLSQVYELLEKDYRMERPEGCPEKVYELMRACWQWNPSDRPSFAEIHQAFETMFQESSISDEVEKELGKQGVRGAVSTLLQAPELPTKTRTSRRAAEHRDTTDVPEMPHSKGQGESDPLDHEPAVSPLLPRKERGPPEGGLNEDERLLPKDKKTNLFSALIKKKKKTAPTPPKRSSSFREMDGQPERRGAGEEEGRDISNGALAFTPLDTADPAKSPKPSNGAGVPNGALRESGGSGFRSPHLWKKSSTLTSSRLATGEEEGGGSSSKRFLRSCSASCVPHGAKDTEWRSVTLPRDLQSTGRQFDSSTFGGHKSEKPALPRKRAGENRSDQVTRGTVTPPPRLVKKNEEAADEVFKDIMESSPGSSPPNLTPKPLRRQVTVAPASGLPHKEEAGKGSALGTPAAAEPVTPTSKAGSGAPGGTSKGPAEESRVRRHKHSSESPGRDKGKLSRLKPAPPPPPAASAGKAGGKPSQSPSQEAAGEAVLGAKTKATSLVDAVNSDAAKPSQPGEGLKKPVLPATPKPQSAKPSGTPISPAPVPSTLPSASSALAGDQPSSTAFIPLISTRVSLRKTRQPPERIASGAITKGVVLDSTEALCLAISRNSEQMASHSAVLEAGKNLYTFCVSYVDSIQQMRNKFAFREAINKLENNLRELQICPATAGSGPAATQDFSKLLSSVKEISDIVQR
Sequence of LCK (human) (P06239 whole entry, looked up): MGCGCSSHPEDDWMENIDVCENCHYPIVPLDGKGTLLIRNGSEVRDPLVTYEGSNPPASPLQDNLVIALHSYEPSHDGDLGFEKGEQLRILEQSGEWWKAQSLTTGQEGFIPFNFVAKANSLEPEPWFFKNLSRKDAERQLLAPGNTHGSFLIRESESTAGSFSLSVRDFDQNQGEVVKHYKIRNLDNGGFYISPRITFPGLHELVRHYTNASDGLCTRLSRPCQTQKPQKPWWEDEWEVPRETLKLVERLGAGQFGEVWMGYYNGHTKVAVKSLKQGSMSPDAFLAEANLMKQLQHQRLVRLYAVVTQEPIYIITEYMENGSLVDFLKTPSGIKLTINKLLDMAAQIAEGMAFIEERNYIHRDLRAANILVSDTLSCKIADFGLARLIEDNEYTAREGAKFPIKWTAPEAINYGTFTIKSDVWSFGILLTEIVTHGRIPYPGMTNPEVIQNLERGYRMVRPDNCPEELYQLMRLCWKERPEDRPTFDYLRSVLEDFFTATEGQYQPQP
Sequence of ABL1 (human), P00519 [F317L] (P00519 whole entry F317L, looked up): as the sequence (P00519 whole entry F317I, looked up) above, with I317L counted along it

For the compound `COc1cc(N2CCN(C)CC2)ccc1Nc1ncc2c(n1)N(c1ccccc1)CCC(=O)N2`, the kinase still bound, per cent of control was determined as 17% in assay [1]; 16% in assay [2]; 21% on BLK (human); 15% on BMP2K (human); 27% at CHEK1 (human); 16% on CSF1R (human). Moreover, the kinase still bound, per cent of control stood at 11% in assay [3]; 14% in assay [4]; 5.2% in [5]; 12% in assay [6]; 31% in assay [7]; 21% in assay [8]. The kinase still bound, per cent of control amounted to 17% in [9]; 18% in [10]; 8.6% in assay [11]; 31% in [12]; 23% in [13]; 2.8% at FRK (human). In addition, the kinase still bound, per cent of control at GAK (human) was 2%; on KIT (human), 5.7%; in assay [14], 2.4%; in assay [15], 4.6%; on LCK (human) it was 25%; at PDGFRB (human), 1.1%. Moreover, the kinase still bound, per cent of control at PIP5K1A (human) is 34%; on RIOK1 (human), 27%; on RIOK3 (human), 23%; at RPS6KA1 KD2 (human), 33%; on RPS6KA6 KD2 (human), 18%; on SIK1 (human), 12%. The kinase still bound, per cent of control came to 26% at SIK2 (human); 29% on SLK (human); 29% at SRPK1 (human); 30% at SRPK3 (human); 5% on TNK2 (human); 28% in assay [16]. The kinase still bound, per cent of control at ULK1 (human) came to 24%.

For `O=C1NC(=O)C(=Cc2ccc(-c3ccc(S(=O)(=O)N4CCNCC4)cc3)o2)C(=O)N1`, the kinase still bound, per cent of control was 17% in assay [3]; 6.9% in assay [17]; 16% in assay [9]; 17% at MAP2K2 (human); 12% at MAP2K4 (human); 0.6% at PIK3C2B (human). The kinase still bound, per cent of control at PIK3CB (human) and at PIK3CD (human) was 0% in each case.
